According to patent US12264146B2, “Rho kinase inhibitor, method for preparing same and uses thereof” (BEIJING INCREASE INNOVATIVE DRUG CO., LTD., priority 2018, dated 2025):
Where a name gives a salt, the structure may show the parent alone.

Assays:
[1] = system: subarachnoid hemorrhage in rats; test: Rat subarachnoid hemorrhage (SAH) model by intravascular puncture, Sugawara bleeding score; type: in vivo; design: dose or concentration left out as unconfirmed; settings: tail vein injection, 2 administrations 4 h apart, scored 24 h after first administration (Sugawara)
prostacyclin (PGI2) = test: Expression of prostacyclin (PGI2) in EA.Hy926 endothelial cells, ELISA kit; type: cell-based; settings: 24 h; for expression of prostacyclin in endothelial cells: Detection result of test compound at low dose (0.4 μM) / expression of prostacyclin in endothelial cells: Detection result of test compound at medium dose (2 μM) / expression of prostacyclin in endothelial cells: Detection result of test compound at high dose (10 μM): EA.Hy926 cell supernatant
Outline: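 EA.Hy926 cells were grown adherent 24 h, then exposed to compound in DMEM at high, medium and low doses for 24 h at 37 °C. PGI2 in the centrifuged supernatant was measured by ELISA against a medium-only normal control.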

[2] = system: endothelial nitric oxide synthase (eNOS); test: Endothelial nitric oxide synthase (eNOS) in EA.Hy926 endothelial cells, detection kit; type: cell-based; settings: EA.Hy926 cell supernatant, 24 h
Outline: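 EA.Hy926 cells seeded at […], grown adherent 24 h, then exposed to high, medium or low compound doses in DMEM for 24 h at 37 °C. Supernatant was centrifuged, diluted 3 times and eNOS quantified with a commercial detection kit.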

endothelin (ET-1) = test: Expression of endothelin (ET-1) in EA.Hy926 endothelial cells, detection kit; type: cell-based, human; settings: 48 h; for expression of endothelin in endothelial cells: Detection result of test compound at low dose (0.4 μM) / expression of endothelin in endothelial cells: Detection result of test compound at medium dose (2 μM) / expression of endothelin in endothelial cells: Detection result of test compound at high dose (10 μM): EA.Hy926 cell supernatant
nitric oxide (NO) = test: Synthesis and secretion of nitric oxide (NO) in EA.Hy926 endothelial cells, NO detection kit; type: cell-based; settings: EA.Hy926 cell supernatant, 24 h
Outline: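 EA.Hy926 cells, adhered for 18 h, were exposed for 24 h to test compound at high, medium or low dose in DMEM. Supernatant NO was then measured with a commercial detection kit, with medium-only normal control and fasudil hydrochloride groups run alongside.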

SMILES | Cerebral hemorrhage volume score (x ± s) [1] | expression of prostacyclin in endothelial cells: Detection result of test compound at low dose (0.4 μM) (prostacyclin (PGI2)) | expression of prostacyclin in endothelial cells: Detection result of test compound at medium dose (2 μM) (prostacyclin (PGI2)) | expression of prostacyclin in endothelial cells: Detection result of test compound at high dose (10 μM) (prostacyclin (PGI2)) | expression of endothelial nitric oxide synthase in endothelial cells: Detection result of test compound at low dose (0.4 μM) [2] | expression of endothelial nitric oxide synthase in endothelial cells: Detection result of test compound at medium dose (2 μM) [2] | expression of endothelial nitric oxide synthase in endothelial cells: Detection result of test compound at high dose (10 μM) [2] | expression of endothelin in endothelial cells: Detection result of test compound at low dose (0.4 μM) (endothelin (ET-1)) | expression of endothelin in endothelial cells: Detection result of test compound at medium dose (2 μM) (endothelin (ET-1)) | expression of endothelin in endothelial cells: Detection result of test compound at high dose (10 μM) (endothelin (ET-1)) | nitric oxide secretion in endothelial cells: Detection result of test compound at low dose (0.4 μM) (nitric oxide (NO)) | nitric oxide secretion in endothelial cells: Detection result of test compound at medium dose (2 μM) (nitric oxide (NO)) | nitric oxide secretion in endothelial cells: Detection result of test compound at high dose (10 μM) (nitric oxide (NO)) | effect on the expression of prostacyclin (in words) (prostacyclin (PGI2); low concentration) | effect on the expression of prostacyclin (in words) (prostacyclin (PGI2); medium and high concentrations) | effect on the expression and secretion of endothelin (in words) (endothelin (ET-1); high, medium and low doses)
COc1nccc2c(S(=O)(=O)N3CCCNC[C@H]3CCC(C)C)cccc12 [Compound R-YK1612, (R)-5-((2-isopentyl-1,4-diazacycloheptan-1-yl)sulfonyl)-1-methoxyisoquinoline] | 13.05 ± 1.96 | 269.40 ± 8.89 pg/mL | 269.35 ± 8.69 pg/mL | 257.44 ± 4.48 pg/mL | 2776.58 ± 261.27 pg/mL | 2456.67 ± 226.85 pg/mL | 2286.671 ± 195.06 pg/mL | 232.61 ± 9.70 pg/mL | 229.98 ± 11.41 pg/mL | 249.23 ± 0.75 pg/mL | 0.960 ± 0.134 μm | 1.021 ± 0.006 μm | 1.114 ± 0.006 μm |  |  | 
O=S(=O)(c1cccc2cnccc12)N1CCCNCC1 [Fasudil hydrochloride, reference compound] | 10.25 ± 3.24 | 259.07 ± 40.07 pg/mL | 208.85 ± 37.07 pg/mL | 184.93 ± 1.09 pg/mL | 2810.61 ± 13.02 pg/mL | 2648.66 ± 9.59 pg/mL | 2636.14 ± 188.26 pg/mL | 254.29 ± 3.35 pg/mL | 252.58 ± 3.92 pg/mL | 325.69 ± 9.78 pg/mL | 1.131 ± 0.045 μm | 1.356 ± 0.045 μm | 1.450 ± 0.000 μm | promoted the expression of prostacyclin | inhibited the expression | significantly promote the expression and secretion of endothelin
